{"source": "patent US8168596B2", "about": "“Use of cycloartane compounds for treating arthritis” (NuLiv Holding Inc., priority 2008, dated 2012)", "tested_on": "MMP1", "test": "Western blotting of MMP1 protein expression induced by IL-1β, PMA or TNF-α in SW1353 cells (Example 3)", "assay_type": "cell-based, human", "details": "AS4 0.01, 0.1 or 1 μM; PMA 100 ng/mL, IL-1β 10 ng/mL, TNF-α 10 ng/mL, 24 h", "experimental": "Western blotting analysis was carried out based on the following procedure. Cells were washed and lysed in 0.2 mL of lysis buffer (1% NP-40, 50 mM Tris-HCl, pH 7.4, 180 mM NaCl, 1 mM EDTA, 1 mM PMSF, 1 mM NaF, 10 mM Na3VO4) for 30 min at 4° C. After centrifugation at 17500 g for 15 min, the supernatants of cell lysate were collected. Protein concentrations of the samples were measured using the bicinchoninic acid (BCA) protein assay kit according to the manufacturer's protocol (Pierce, Rockford, Ill., USA). Equal amounts of protein samples of concentrated conditioned medium (100 μg) or cell lysate supernatants (50 μg) were mixed with an appropriate volume of 4×SDS sampling buffer and separated on a 8% SDS-PAGE gel. The protein bands separated on the SDS-PAGE gel were blotted onto a polyvinylidene fluoride (PVDF) membrane. The blotted PVDF membrane was washed twice and blocked in freshly prepared Tris-buffered saline (TBS) containing 0.1% Tween-20 and 7% skim milk (TBST) for 2 hours at room temperature. The PVDF membrane was then incubated with a primary antibody against MMP1 protein (Santa Cruz Biotechnology, Santa Cruz, Calif.) for 18 hours at 4° C. Horseradish peroxidase-conjugated anti-goat antibody was used as the secondary antibody. Signals were visualized by an enhanced chemiluminescence kit (Clonetech, Palo Alto, Calif., USA) followed by exposure to X-ray films. […]", "data": [{"smiles": "CC(C)(O)[C@@H]1CC[C@](C)([C@H]2[C@@H](O)C[C@@]3(C)[C@@H]4C[C@H](O[C@@H]5O[C@H](CO)[C@@H](O)[C@H](O)[C@H]5O)[C@H]5C(C)(C)[C@@H](O[C@@H]6OC[C@@H](O)[C@H](O)[C@H]6O)CC[C@@]56C[C@@]46CC[C@]23C)O1", "note": "[AS4, Astragaloside IV]", "values": [{"measurement": "level of expression of MMP1 protein with different inducers", "value": "inhibited"}]}]}
